Values after ≈ are worked out from the molar mass of the structure shown. Read-outs that look alike come from different tables or passages of the source.
Tests used:
Experiment in all cases: MIC/MBC antibiotic sensitivity (CLSI)
Format in all cases: cell-based
B. contaminans (HNBC001) = settings: CLSI criteria, read-out: MIC (R/I/S category)
Method: (§1) The new compounds of the invention were synthesized following the general method of preparation (Tetrahedron, 2001, 57, 1671-1675), from the reaction between an intermediary compound of the acyl thiourea and HgCl2 in presence of trimethylamine. The products were adequately characterized regarding its chemistry. The antibacterial activity of the new compounds was assayed against two Gram-positive reference strains: Staphylococcus aureus (ATCC6538) and Bacillus cereus (ATCC10876), a fermenting Gram-negative strain: Escherichia coli (ATCC25922), and 26 non-fermenting Gram-negative isolates, including 3 reference strains: Pseudomonas aeruginosa (PAO1), Bordetella bronchiseptica (9.73H+), and Inquilinus limosus (DSM16000), and 23 isolates recovered from patients suffering from cystic fibrosis, including one Achromobacter xylosoxidans isolate, and 22 isolates belonging to the Burkholderia cepacia complex. The later were selected because they presented resistance to a high number of antimicrobial compounds, among a panel of 125 clinical isolates previously analyzed for its resistance against 17 antimicrobial compounds (1,2). The antibiotic sensitivity studies were performed by applying two quantitative methods which allow to determine the minimum inhibitory concentration (MIC) and the minimum bactericidal concentration (MBC).
(§2) The compounds obtained in Examples 1 and 2 were assayed against 23 isolates recovered from the sputum of patients suffering from cystic fibrosis being treated at the Sor Maria Ludovica Children Hospital (La Plata, Buenos Aires, Argentina). Nineteen of these isolates were selected for being highly resistant to most of the antimicrobial agents of clinical use from a panel of 125 isolates previously characterized in Martina et al. (1). Reference strains were also included: Gram (+) bacteria: B. cereus and S. aureus, fermenting Gram (−) bacteria: E. coli, and non-fermenting Gram (−) bacteria: Inquilinus limosus (DSM16000), B. bronchiseptica, and Pseudomonas aeruginosa (PAO1). The antibiotic sensitivity studies were performed applying two quantitative methods which allow to determine the minimum inhibitory concentration (MIC) and the minimum bactericidal concentration (MBC) according to the criteria established by the Clinical and Laboratory Standards Institute (CLSI) (4). For comparative purposes, three antibiotics commonly used in the treatment of pulmonary infections in cystic fibrosis patients were included in the study: tobramycin, ceftazidime and meropenem.

[1] = tested on: Burkholderia seminalis (CBC 042); settings: Burkholderia seminalis, CLSI criteria, B. seminalis (CBC 042), read-out: MIC (R/I/S category)
Method: as §1, §2

[2] = tested on: Pseudomonas aeruginosa (PAO1); settings: Pseudomonas aeruginosa, P. aeruginosa (PAO1); for MBC: read-out: MBC; for MIC: read-out: MIC
Method: as §1, §2

[3] = tested on: Burkholderia cenocepacia (CBC 033); settings: Burkholderia cenocepacia, CLSI criteria, B. cenocepacia (CBC 033), read-out: MIC (R/I/S category)
Method: as §1, §2

[4] = tested on: Burkholderia cepacia (CBC 011); settings: for MIC: Burkholderia cepacia, CLSI criteria, B. cepacia (CBC 011), read-out: MIC (R/I/S category)
Method: as §1, §2

[5] = tested on: Inquilinus limosus (DSM16000)
Method: as §1, §2

[6] = tested on: Burkholderia cenocepacia (HE001); settings: Burkholderia cenocepacia, CLSI criteria, B. cenocepacia (HE001), read-out: MIC (R/I/S category)
Method: as §1, §2

[7] = tested on: Burkholderia multivorans (CBC 016); settings: Burkholderia multivorans, CLSI criteria, B. multivorans (CBC 016), read-out: MIC (R/I/S category)
Method: as §1, §2

[8] = tested on: Burkholderia cenocepacia (CBC 036); settings: Burkholderia cenocepacia, CLSI criteria, B. cenocepacia (CBC 036), read-out: MIC (R/I/S category)
Method: as §1, §2

[9] = tested on: Burkholderia cenocepacia (CBC 023); settings: Burkholderia cenocepacia, CLSI criteria, B. cenocepacia (CBC 023), read-out: MIC (R/I/S category)
Method: as §1, §2

[10] = tested on: Burkholderia seminalis (CBC 040); settings: Burkholderia seminalis, CLSI criteria, B. seminalis (CBC 040), read-out: MIC (R/I/S category)
Method: as §1, §2

[11] = tested on: Burkholderia multivorans (CBC 019); settings: for MIC: Burkholderia multivorans, CLSI criteria, B. multivorans (CBC 019), read-out: MIC (R/I/S category)
Method: as §1, §2

[12] = tested on: Staphylococcus aureus (ATCC6538); settings: Staphylococcus aureus, S. aureus (ATCC6538); for MBC: read-out: MBC; for MIC: read-out: MIC
Method: as §1, §2

[13] = tested on: Burkholderia cenocepacia (CBC 029); settings: Burkholderia cenocepacia, CLSI criteria, B. cenocepacia (CBC 029), read-out: MIC (R/I/S category)
Method: as §1, §2

[14] = tested on: Burkholderia multivorans (CBC 022); settings: for MIC: Burkholderia multivorans, CLSI criteria, B. multivorans (CBC 022), read-out: MIC (R/I/S category)
Method: as §1, §2

[15] = tested on: Burkholderia multivorans (CBC 015); settings: for MIC: Burkholderia multivorans, CLSI criteria, B. multivorans (CBC 015), read-out: MIC (R/I/S category)
Method: as §1, §2

[16] = tested on: Burkholderia cenocepacia (CBC 035); settings: for MIC: Burkholderia cenocepacia, CLSI criteria, B. cenocepacia (CBC 035), read-out: MIC (R/I/S category)
Method: as §1, §2

[17] = tested on: Escherichia coli (ATCC25922); settings: Escherichia coli, E. coli (ATCC25922); for MBC: read-out: MBC; for MIC: read-out: MIC
Method: as §1, §2

[18] = tested on: Bordetella bronchiseptica (9.73H+); settings: B. bronchiseptica (9.73H+); for MBC: read-out: MBC; for MIC: read-out: MIC
Method: as §1, §2

[19] = tested on: Burkholderia cenocepacia (CBC 031); settings: Burkholderia cenocepacia, CLSI criteria, B. cenocepacia (CBC 031), read-out: MIC (R/I/S category)
Method: as §1, §2

[20] = tested on: Burkholderia multivorans (CBC 020); settings: for MIC: Burkholderia multivorans, CLSI criteria, B. multivorans (CBC 020), read-out: MIC (R/I/S category)
Method: as §1, §2

[21] = tested on: Burkholderia multivorans (CBC 018); settings: for MIC: Burkholderia multivorans, CLSI criteria, B. multivorans (CBC 018), read-out: MIC (R/I/S category)
Method: as §1, §2

[22] = tested on: Burkholderia cenocepacia (CBC 024); settings: Burkholderia cenocepacia, CLSI criteria, B. cenocepacia (CBC 024), read-out: MIC (R/I/S category)
Method: as §1, §2

[23] = tested on: Burkholderia cepacia (CBC 010); settings: for MIC: Burkholderia cepacia, CLSI criteria, B. cepacia (CBC 010), read-out: MIC (R/I/S category)
Method: as §1, §2

C[C@@H](O)[C@H]1C(=O)N2C(C(=O)O)=C(S[C@@H]3CN[C@H](C(=O)N(C)C)C3)[C@H](C)[C@H]12 [Meropenem, meropenem]
MIC (B. contaminans (HNBC001); Meropenem): > 16 µg/mL | MIC ([1]; Meropenem): > 16 µg/mL | MBC [2]: < 0.48 µg/mL | MIC [2]: < 0.48 µg/mL | MIC ([3]; Meropenem): > 16 µg/mL | MBC ([4]; Burkholderia cepacia (CBC 011)): > 62.5 µg/mL | MIC ([4]; Meropenem): < 4 µg/mL | MBC [5]: < 0.48 µg/mL | MIC ([5]; read-out: MIC): < 0.48 µg/mL | MIC ([6]; Meropenem): > 16 µg/mL | MIC ([7]; Meropenem): > 16 µg/mL | MIC ([8]; Meropenem): > 16 µg/mL | MIC ([9]; Meropenem): > 16 µg/mL | MIC ([10]; Meropenem): > 16 µg/mL | MBC ([11]; Burkholderia multivorans (CBC 019)): 7.81 µg/mL (≈ 20.4 µM) | MIC ([11]; Meropenem): < 4 µg/mL | MBC [12]: < 0.48 µg/mL | MIC [12]: < 0.48 µg/mL | MIC ([13]; Meropenem): > 16 µg/mL | MBC ([14]; Burkholderia multivorans (CBC 022)): 7.81 µg/mL (≈ 20.4 µM) | MIC ([14]; Meropenem): < 4 µg/mL | MBC ([15]; Burkholderia multivorans (CBC 015), read-out: MBC): 3.9 µg/mL (≈ 10.2 µM) | MIC ([15]; Meropenem): < 4 µg/mL | MBC ([16]; Burkholderia cenocepacia (CBC 035), read-out: MBC): 15.6 µg/mL (≈ 40.7 µM) | MIC ([16]; Meropenem): < 4 µg/mL | MBC [17]: < 0.48 µg/mL | MIC [17]: < 0.48 µg/mL | MBC [18]: < 0.48 µg/mL | MIC [18]: < 0.48 µg/mL | MIC ([19]; Meropenem): > 16 µg/mL | MBC ([20]; Burkholderia multivorans (CBC 020)): 31.2 µg/mL (≈ 81.5 µM) | MIC ([20]; Meropenem): < 4 µg/mL | MBC ([21]; Burkholderia multivorans (CBC 018), read-out: MBC): 3.9 µg/mL (≈ 10.2 µM) | MIC ([21]; Meropenem): < 4 µg/mL | MIC ([22]; Meropenem): > 16 µg/mL | MBC ([23]; Burkholderia cepacia (CBC 010)): 3.9 µg/mL (≈ 10.2 µM) | MIC ([23]; Meropenem): < 4 µg/mL

NC[C@H]1O[C@H](O[C@H]2[C@H](O)[C@@H](O[C@H]3O[C@H](CO)[C@@H](O)[C@H](N)[C@H]3O)[C@H](N)C[C@@H]2N)[C@H](N)C[C@@H]1O [Tobramucin, tobramycin]
MIC (B. contaminans (HNBC001); Tobramucin): > 16 µg/mL | MIC ([1]; Tobramucin): > 16 µg/mL | MBC [2]: 1.95 µg/mL (≈ 4.17 µM) | MIC [2]: 1.95 µg/mL (≈ 4.17 µM) | MIC ([3]; Tobramucin): > 16 µg/mL | MIC ([4]; Tobramucin): > 16 µg/mL | MIC ([5]; Tobramucin, CLSI criteria, read-out: MIC (R/I/S category)): > 16 µg/mL | MIC ([6]; Tobramucin): > 16 µg/mL | MIC ([7]; Tobramucin): > 16 µg/mL | MIC ([8]; Tobramucin): > 16 µg/mL | MIC ([9]; Tobramucin): > 16 µg/mL | MIC ([10]; Tobramucin): > 16 µg/mL | MIC ([11]; Tobramucin): > 16 µg/mL | MBC [12]: 1.95 µg/mL (≈ 4.17 µM) | MIC [12]: 1.95 µg/mL (≈ 4.17 µM) | MIC ([13]; Tobramucin): > 16 µg/mL | MIC ([14]; Tobramucin): > 16 µg/mL | MIC ([15]; Tobramucin): > 16 µg/mL | MIC ([16]; Tobramucin): > 16 µg/mL | MBC [17]: 15.6 µg/mL (≈ 33.4 µM) | MIC [17]: 15.6 µg/mL (≈ 33.4 µM) | MBC [18]: 62.5 µg/mL (≈ 134 µM) | MIC [18]: 62.5 µg/mL (≈ 134 µM) | MIC ([19]; Tobramucin): > 16 µg/mL | MIC ([20]; Tobramucin): > 16 µg/mL | MIC ([21]; Tobramucin): > 16 µg/mL | MIC ([22]; Tobramucin): > 16 µg/mL | MIC ([23]; Tobramucin): > 16 µg/mL

From patent US10857110B2, “Antibacterial compounds” (CONSEJO NACIONAL DE INVESTIGACIONES CIENTÍFICAS Y TÉCNICAS …, priority 2016, dated 2020)
